Assay results: patent publication US20240101544A1, “INHIBITORS OF QPCTL AND QPCT” (priority 2022, published 2024)

Tests used:
[1] = biological target: QPCTL (Homo sapiens (Human), UniProt Q9NXS2); test: QPCTL Enzymatic Activity Assay (coupled-enzyme fluorescent assay, H-Gln-AMC substrate); type: biochemical; conditions: recombinant truncated human QPCTL 10-12 nM, 10 μM H-Gln-AMC; read-out: QPCTL Inhibition IC50
Method: Protein expression was induced when the bacterial culture OD600 was approximately 0.7 using 1 mM IPTG and the cells incubated at 20° C. for approximately 16 hours. The QPCTL was purified using nickel column purification, digested by TEV, followed by a second nickel column purification. The protein was further purified by size-exclusion chromatography using a Superdex™ 75 column. The final protein was concentrated using ultrafiltration tubes at a molecular weight cutoff of 10 kilodaltons and stored frozen in protein buffer (25 mM Tris pH 8.3, 150 mM NaCl).
QPCTL activity was measured in a coupled-enzyme assay using the QPCTL substrate, glutamine-7-amido-4-methylcoumarin (H-Gln-AMC, Bachem), which is converted to pyroglutamyl-AMC by QPCTL. Pyroglutamyl-AMC is then converted to the fluorescent molecule, AMC, by incubation with the human enzyme pyroglutamyl peptidase-1. […] Final concentrations of DMSO and test compounds were 2% and 30-100 μM, respectively. Following the incubation, H-Gln-AMC substrate was diluted in assay buffer and added to each well for a final concentration of 10 μM. The reaction was incubated for 60 min at 37° C., before stopping it by boiling at 100° C. for 5 minutes and cooling the plate at 4° C. for 3 minutes. […] Following incubation, the fluorescence was measured with a plate reader using excitation at 380 nm and emission at 460 nm. […] Concentration-response-curves and IC50 values (Table 17) were generated using curve fit software.

[2] = biological target: QPCT (rhQPCT) (Homo sapiens (Human), UniProt Q16769); test: QPCT Enzymatic Activity Assay (coupled-enzyme fluorescent assay, H-Gln-AMC substrate); type: biochemical; conditions: rhQPCT 10-12 nM, 10 μM H-Gln-AMC; read-out: QPCT Inhibition IC50
QPCT (rhQPCT), sequence (Q16769 29-361): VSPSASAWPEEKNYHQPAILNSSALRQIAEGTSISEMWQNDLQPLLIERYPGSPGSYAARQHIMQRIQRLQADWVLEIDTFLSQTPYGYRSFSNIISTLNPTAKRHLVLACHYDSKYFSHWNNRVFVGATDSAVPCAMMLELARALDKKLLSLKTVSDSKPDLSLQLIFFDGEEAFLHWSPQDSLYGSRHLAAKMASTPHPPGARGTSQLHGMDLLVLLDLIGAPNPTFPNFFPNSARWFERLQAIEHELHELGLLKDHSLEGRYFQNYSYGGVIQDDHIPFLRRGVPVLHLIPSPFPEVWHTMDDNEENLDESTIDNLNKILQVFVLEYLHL
Method: QPCT activity was measured in a coupled-enzyme assay using the QPCT substrate, glutamine-7-amido-4-methylcoumarin (H-Gln-AMC, Bachem), which is converted to pyroglutamyl-AMC by QPCT. Pyroglutamyl-AMC is then converted to the fluorescent molecule, AMC, by incubation with the human enzyme pyroglutamyl peptidase-1 (PGPEP-1). […] Following the incubation, H-Gln-AMC substrate was diluted in assay buffer and added to each well for a final concentration of 10 μM. The reaction was incubated for 60 min at 37° C., before stopping it by boiling at 100° C. for 5 minutes and cooling the plate at 4° C. for 3 minutes. […] Following incubation, the fluorescence was measured with a plate reader using excitation at 380 nm and emission at 460 nm. […] Concentration-response-curves and IC50 values (Table 17) were generated using Collaborative Drug Discovery software.

QPCTL, sequence (Q9NXS2 53-382): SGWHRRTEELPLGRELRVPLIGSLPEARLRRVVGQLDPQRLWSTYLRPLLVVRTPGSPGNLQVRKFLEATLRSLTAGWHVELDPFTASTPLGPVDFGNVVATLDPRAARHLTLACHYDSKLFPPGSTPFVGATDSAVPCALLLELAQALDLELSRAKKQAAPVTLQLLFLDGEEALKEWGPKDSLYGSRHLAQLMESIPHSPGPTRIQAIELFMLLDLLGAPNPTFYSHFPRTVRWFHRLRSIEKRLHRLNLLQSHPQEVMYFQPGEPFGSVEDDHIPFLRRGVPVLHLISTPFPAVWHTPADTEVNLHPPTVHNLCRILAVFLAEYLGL

Row | Compound | IC50 [1] | IC50 [2]
1 | 6′-fluoro-3-(4-(1-methyl-1H-imidazol-5-yl)piperidin-1-yl)-[2,3′-bipyridine]-4-carbonitrile [Example 134] | < 100 nM | < 100 nM
2 | Cn1cnnc1C1CCN(c2c(-c3ccc(F)nc3)ccc(OC3CCOC3)c2C#N)CC1 (single isomer, unassigned) [Example 89, 3-(6-fluoropyridin-3-yl)-2-(4-(4-methyl-4H-1,2,4-triazol-3-yl)piperidin-1-yl)-6-((tetrahydrofuran-3-yl)oxy)benzonitrile] | < 100 nM | < 100 nM
3 | Cn1cnnc1C1CCN(c2c(C#N)cccc2-c2cnccn2)CC1 [Example 5, 2-[4-(4-methyl-4H-1,2,4-triazol-3-yl)piperidin-1-yl]-3-(pyrazin-2-yl)benzonitrile] | 100 to 1000 nM | 100 to 1000 nM
4 | Cn1cnnc1C1CCN(c2c(C#N)cccc2-c2cnccc2O)CC1 [Example 7, 3-(4-hydroxypyridin-3-yl)-2-[4-(4-methyl-4H-1,2,4-triazol-3-yl)piperidin-1-yl]benzonitrile] | 1000 to 10000 nM | 1000 to 10000 nM
5 | COc1ccncc1-c1cccc(C#N)c1N1CCC(n2ccnc2)CC1 [Example 13, 2-[4-(1H-imidazol-1-yl)piperidin-1-yl]-3-(4-methoxypyridin-3-yl)benzonitrile] | 1000 to 10000 nM | 100 to 1000 nM
6 | COc1ccncc1-c1cccc(C#N)c1N1CCC(c2cncs2)CC1 [Example 14, 3-(4-methoxypyridin-3-yl)-2-[4-(1,3-thiazol-5-yl)piperidin-1-yl]benzonitrile] | 100 to 1000 nM | 100 to 1000 nM
7 | COc1ccncc1-c1cccc(C#N)c1N1CCC(c2cnc(N)s2)CC1 [Example 17, 2-[4-(2-amino-1,3-thiazol-5-yl)piperidin-1-yl]-3-(4-methoxypyridin-3-yl)benzonitrile] | 100 to 1000 nM | 100 to 1000 nM
8 | COc1ccncc1-c1cccc(C#N)c1N1CCC(n2cnnc2C)CC1 [Example 18, 3-(4-methoxypyridin-3-yl)-2-[4-(3-methyl-4H-1,2,4-triazol-4-yl)piperidin-1-yl]benzonitrile] | > 10000 nM | > 10000 nM
9 | Cn1cnnc1C1CCN(c2c(C#N)cccc2-c2cncc3c2OCCN3)CC1 [Example 20, 2-[4-(4-methyl-4H-1,2,4-triazol-3-yl)piperidin-1-yl]-3-{2H,3H,4H-pyrido[4,3-b][1,4]oxazin-8-yl}benzonitrile] | 100 to 1000 nM | < 100 nM
10 | COc1ccncc1-c1cccc(C#N)c1N1CCC(c2nnc(N)s2)CC1 [Example 21, 2-[4-(5-amino-1,3,4-thiadiazol-2-yl)piperidin-1-yl]-3-(4-methoxypyridin-3-yl)benzonitrile] | 100 to 1000 nM | 100 to 1000 nM
11 | CN1CCOc2c(-c3cccc(C#N)c3N3CCC(c4nncn4C)CC3)cncc21 [Example 22, 3-{4-methyl-2H,3H,4H-pyrido[4,3-b][1,4]oxazin-8-yl}-2-[4-(4-methyl-4H-1,2,4-triazol-3-yl)piperidin-1-yl]benzonitrile] | 100 to 1000 nM | 100 to 1000 nM
12 | Cn1cnnc1C1CCN(c2c(C#N)cccc2-c2cncc3c2OCCN3CCO)CC1 [Example 23, 3-[4-(2-hydroxyethyl)-2H,3H,4H-pyrido[4,3-b][1,4]oxazin-8-yl]-2-[4-(4-methyl-4H-1,2,4-triazol-3-yl)piperidin-1-yl]benzonitrile] | 100 to 1000 nM | 100 to 1000 nM
13 | Cn1cnnc1C1CCN(c2c(C#N)cccc2-c2ccc(C(F)(F)F)nc2)CC1 [Example 29, 2-[4-(4-methyl-4H-1,2,4-triazol-3-yl)piperidin-1-yl]-3-[6-(trifluoromethyl)pyridin-3-yl]benzonitrile] | 100 to 1000 nM | 100 to 1000 nM
14 | COc1ccncc1-c1cccc(C#N)c1N1CCC(c2cncn2C)CC1 [Example 31, 3-(4-methoxypyridin-3-yl)-2-[4-(1-methyl-1H-imidazol-5-yl)piperidin-1-yl]benzonitrile] | < 100 nM | < 100 nM
15 | COc1ccncc1-c1ccc(-c2ccccc2)c(C#N)c1N1CCC(c2nncn2C)CC1 [Example 32, 4-(4-methoxypyridin-3-yl)-3-[4-(4-methyl-4H-1,2,4-triazol-3-yl)piperidin-1-yl]-[1,1′-biphenyl]-2-carbonitrile] | < 100 nM | < 100 nM
16 | Cn1cnnc1C1CCN(c2c(C#N)cccc2-c2ccc(Cl)nc2)CC1 [Example 40, 3-(6-chloropyridin-3-yl)-2-[4-(4-methyl-4H-1,2,4-triazol-3-yl)piperidin-1-yl]benzonitrile] | < 100 nM | 100 to 1000 nM
17 | N#Cc1cccc(-c2ccc(F)nc2)c1N1CCC(c2nnc[nH]2)CC1 [Example 49, 2-(4-(4H-1,2,4-triazol-3-yl)piperidin-1-yl)-3-(6-fluoropyridin-3-yl)benzonitrile] | 100 to 1000 nM | 100 to 1000 nM
18 | Cc1ncn(-c2ccc(-c3ccc(F)nc3)c(N3CCC(c4nncn4C)CC3)c2C#N)n1 [Example 50, 3-(6-fluoropyridin-3-yl)-6-(3-methyl-1H-1,2,4-triazol-1-yl)-2-(4-(4-methyl-4H-1,2,4-triazol-3-yl)piperidin-1-yl)benzonitrile] | < 100 nM | < 100 nM
19 | Cn1cnnc1C1CCN(c2c(C#N)cccc2-c2cnnc(O)c2)CC1 [Example 52, 3-(6-hydroxypyridazin-4-yl)-2-(4-(4-methyl-4H-1,2,4-triazol-3-yl)piperidin-1-yl)benzonitrile] | < 100 nM | < 100 nM
20 | Cc1cc(-c2c(F)ccc(C#N)c2N2CCC(c3nncn3C)CC2)cnc1F [Example 53, 4-fluoro-3-(6-fluoro-5-methylpyridin-3-yl)-2-(4-(4-methyl-4H-1,2,4-triazol-3-yl)piperidin-1-yl)benzonitrile] | < 100 nM | < 100 nM
21 | [2H]C([2H])([2H])n1cnnc1C1CCN(c2c(-c3ccc(F)nc3)ccc(-c3cnn(C)c3)c2C#N)CC1 [Example 54, 3-(6-fluoropyridin-3-yl)-6-(1-methyl-1H-pyrazol-4-yl)-2-(4-(4-(methyl-d3)-4H-1,2,4-triazol-3-yl)piperidin-1-yl)benzonitrile] | < 100 nM | < 100 nM
22 | [2H]C([2H])([2H])n1cnnc1C1CCN(c2c(-c3ccnnc3)ccc(-c3cnn(C)c3)c2C#N)CC1 [Example 55, 6-(1-methyl-1H-pyrazol-4-yl)-2-(4-(4-(methyl-d3)-4H-1,2,4-triazol-3-yl)piperidin-1-yl)-3-(pyridazin-4-yl)benzonitrile] | < 100 nM | < 100 nM
23 | [2H]C([2H])([2H])n1cnnc1C1CCN(c2c(-c3ccc(F)nc3)ccc(Cl)c2C#N)CC1 [Example 56, 6-chloro-3-(6-fluoropyridin-3-yl)-2-(4-(4-(methyl-d3)-4H-1,2,4-triazol-3-yl)piperidin-1-yl)benzonitrile] | < 100 nM | < 100 nM
24 | [2H]C([2H])([2H])Oc1ccc(-c2ccc(F)nc2)c(N2CCC(c3nncn3C)CC2)c1C#N [Example 57, 3-(6-fluoropyridin-3-yl)-6-(methoxy-d3)-2-(4-(4-methyl-4H-1,2,4-triazol-3-yl)piperidin-1-yl)benzonitrile] | < 100 nM | < 100 nM
25 | CN(C)CCOc1ccc(-c2ccnnc2)c(N2CCC(c3nncn3C)CC2)c1C#N [Example 58, 6-(2-(dimethylamino)ethoxy)-2-(4-(4-methyl-4H-1,2,4-triazol-3-yl)piperidin-1-yl)-3-(pyridazin-4-yl)benzonitrile] | < 100 nM | < 100 nM
26 | Cc1cc(-c2c(F)ccc(C#N)c2N2CCC(c3nncn3C)CC2)cnn1 [Example 59, 4-fluoro-2-(4-(4-methyl-4H-1,2,4-triazol-3-yl)piperidin-1-yl)-3-(6-methylpyridazin-4-yl)benzonitrile] | 100 to 1000 nM | 100 to 1000 nM
27 | Cc1cc(-c2ccc(-c3ccn(C)n3)c(C#N)c2N2CCC(c3nncn3C)CC2)cnn1 [Example 61, 6-(1-methyl-1H-pyrazol-3-yl)-2-(4-(4-methyl-4H-1,2,4-triazol-3-yl)piperidin-1-yl)-3-(6-methylpyridazin-4-yl)benzonitrile] | < 100 nM | < 100 nM
28 | N#Cc1cccc(-c2ccc(F)nc2)c1N1CCC(c2nncs2)CC1 [Example 72, 2-(4-(1,3,4-thiadiazol-2-yl)piperidin-1-yl)-3-(6-fluoropyridin-3-yl)benzonitrile] | 100 to 1000 nM | 100 to 1000 nM
